IC50 and GI50 data for 10 compounds are collected here from patent publication US20220370440A1 (Lead Discovery Center GmbH, priority 2018, published 2022).

Structures are written as SMILES.

One test deals with A431. Put plainly: A431 CellTiter-Glo. It counts as cell-based. The settings on record: Homo sapiens, A-431; 72 h compound incubation; read-out: A431 CTG IC50. The procedure:
(§1) 2. Measurement of Cellular Activity
(§2) The CellTiter-Glo Luminescent Cell Viability Assay (Promega) is a homogeneous method of determining the number of viable cells in culture. It is based on quantification of ATP, indicating the presence of metabolically active cells. Cells are seeded on day 1 at cell numbers that assure assay linearity and optimal signal intensity. After incubation for 24 h in humidified chambers at 37° C. and 5% CO2, compounds in DMSO are added at different concentrations. Cells are further incubated for 72 h at 37° C. and 5% CO2. Cells treated with the compound vehicle DMSO are used as positive controls and cells treated with 10 μM Staurosporine serve as negative controls. At day 5 the CellTiter Glo Reagent is prepared according to the instructions of the kit (Promega Inc.): Reagent is mixed 1:1 with cell culture medium. Thereon, mixture and assay plates are equilibrated at room temperature for 20 min. Equal volumes of the reagent-medium-mixture is added to the volume of culture medium present in each well. The plates are mixed at ˜200 rpm for 2 minutes on an orbital shaker. The microplates are then incubated at room temperature for 10 minutes for stabilization of the luminescent signal. Following incubation the luminescence is recorded on a Victor microplate reader (Perkin Elmer) using a 200 ms integration time. The data is then analyzed with Excel using the XLFIT Plugin (dose response Fit 205) for IC50-determination. As quality control the Z′-factor is calculated from 16 positive and negative control values. Only assay results showing a Z′-factor ≥0.5 are used for further analysis.
(§3) Inhibition is indicated as […] [nM] (“−”=not measured). Compounds having an activity designated as “A” provided an IC50≤100 nM; compounds having an activity designated as “B” provided an 100 nM<IC50≤500 nM; compounds having an activity designated as “C” provided an 500 nM<IC50≤1000 nM; compounds having an activity designated as “D” provided an 1000 nM<IC50≤100000 nM; and compounds having an activity designated as “E” provided an IC50>10000 nM.

For test [1], the target named is EGFR Exon 20 INSNPH Ba/F3 (Homo sapiens, UniProt P00533, DUP771-773, cells depend on it). Put plainly: EGFR Exon 20 INSNPH Ba/F3 CellTiter-Glo. It counts as cell-based. Particulars: CellTiter-Glo, 72 h, read-out: EGFR Exon 20 INSNPH Ba/F3 CTG IC50. The method, then:
as §1, §2
(§4) Inhibition is indicated as IC50 [nM] (“−”=not measured). Compounds having an activity designated as “A” provided an IC50≤100 nM; compounds having an activity designated as “B” provided an 100 nM<IC50≤500 nM; compounds having an activity designated as “C” provided an 500 nM<IC50≤1000 nM; compounds having an activity designated as “D” provided an 1000 nM<IC50≤10000 nM; and compounds having an activity designated as “E” provided an IC50>10000 nM.
A general note: Cellular ATP, detected with luciferase, serves as a proxy for viable cell number.

In another test the target is EGFR T790ML858R (Homo sapiens, UniProt P00533, L858R/T790M). Put plainly: EGFR T790ML858R Lance assay. It counts as biochemical. The method, then:
as §3

In another test the target is T1, HER2 INS YVMA (Homo sapiens, UniProt P04626, INS775YVMA).
T1 construct: purchased DPF
Put plainly: Lance Kinase Activity Assay, HER2 INS YVMA (Her2 Exon 20 INSYVMA Lance). It counts as biochemical. The settings on record: biochemical Lance assay. The procedure: 1. Measurement of HER2 INS YVMA Kinase Activity
This protocol describes how the Lance Kinase Activity Assay was performed to determine IC50 values of compounds of general formula (I) against HER2 INS YVMA. The principle behind this enzymatic assay is based upon the phosphorylation of the Ulight-peptide substrate. It is detected by using a specific EU-labeled anti-phospho peptide antibody. The binding of the Eu labeled anti-phospho peptide antibody to the phosphorylated ULight labeled peptide gives rise to a FRET-signal.
Binding of an inhibitor to the kinase prevents phosphorylation of the Ulight-substrate, resulting in a loss of FRET. In table 2 is summarized the relevant information for the LANCE assay.
The compounds of general formula (I) summarized in Table 3 were serial diluted from a 10 mM DMSO stock solution 1:3 over 8 steps in a total volume of 20 μl.
For every sample, 8 μl of kinase-substrate mix was transferred into a suitable assay plate (e.g. Corning #3673). Compound was added via pintool transfer (10 nl/well) using a Biomek FX robot (BeckmanCoulter). Reaction was started by addition of 2 μl ATP working solution and mixed using variomag teleshaker (Thermo Fischer Scientific). After 1 h incubation at room temperature the reaction was stopped with 10 μl detection mix containing the Eu-labeled phosphospecific antibody and 10 mM EDTA. After a second incubation period of 1 h at room temperature the FRET signal was measured at 340 nm excitation, 665 nm and 615 nm emission (for the ULight-substrate and Eu-AB, respectively) with an Envision spectrophotometer (Perkin Elmer, Waltham, Mass., USA) with 50 μs delay and 300 μs integration time. IC50 values were determined from the sigmoidal dose response curves with the software Quattro Workflow (Quattro GmbH, Munich, Germany).

In a further test the target is EGFR wt (Homo sapiens, UniProt P00533). The test can be described thus: EGFR wt Lance assay. It counts as biochemical. The procedure: as §3
A further test concerns H1975. Put plainly: H1975 CellTiter-Glo. It counts as cell-based. Particulars: Homo sapiens, NCI-H1975; 72 h compound incubation; read-out: H1975 CTG IC50. The method, then: as §1, §2, §3
Test [2] addresses Her2 Exon 20 INSYVMA Ba/F3 (Homo sapiens, UniProt P04626, DUP772-775, cells depend on it). Put plainly: Her2 Exon 20 INSYVMA Ba/F3 CellTiter-Glo. It counts as cell-based. Particulars: CellTiter-Glo, 72 h, read-out: Her2 Exon 20 INSYVMA Ba/F3 CTG IC50. The method, then: as §1, §2, §4

T1 sequence (P04626 with tags, fused parts or gaps INS775YVMA): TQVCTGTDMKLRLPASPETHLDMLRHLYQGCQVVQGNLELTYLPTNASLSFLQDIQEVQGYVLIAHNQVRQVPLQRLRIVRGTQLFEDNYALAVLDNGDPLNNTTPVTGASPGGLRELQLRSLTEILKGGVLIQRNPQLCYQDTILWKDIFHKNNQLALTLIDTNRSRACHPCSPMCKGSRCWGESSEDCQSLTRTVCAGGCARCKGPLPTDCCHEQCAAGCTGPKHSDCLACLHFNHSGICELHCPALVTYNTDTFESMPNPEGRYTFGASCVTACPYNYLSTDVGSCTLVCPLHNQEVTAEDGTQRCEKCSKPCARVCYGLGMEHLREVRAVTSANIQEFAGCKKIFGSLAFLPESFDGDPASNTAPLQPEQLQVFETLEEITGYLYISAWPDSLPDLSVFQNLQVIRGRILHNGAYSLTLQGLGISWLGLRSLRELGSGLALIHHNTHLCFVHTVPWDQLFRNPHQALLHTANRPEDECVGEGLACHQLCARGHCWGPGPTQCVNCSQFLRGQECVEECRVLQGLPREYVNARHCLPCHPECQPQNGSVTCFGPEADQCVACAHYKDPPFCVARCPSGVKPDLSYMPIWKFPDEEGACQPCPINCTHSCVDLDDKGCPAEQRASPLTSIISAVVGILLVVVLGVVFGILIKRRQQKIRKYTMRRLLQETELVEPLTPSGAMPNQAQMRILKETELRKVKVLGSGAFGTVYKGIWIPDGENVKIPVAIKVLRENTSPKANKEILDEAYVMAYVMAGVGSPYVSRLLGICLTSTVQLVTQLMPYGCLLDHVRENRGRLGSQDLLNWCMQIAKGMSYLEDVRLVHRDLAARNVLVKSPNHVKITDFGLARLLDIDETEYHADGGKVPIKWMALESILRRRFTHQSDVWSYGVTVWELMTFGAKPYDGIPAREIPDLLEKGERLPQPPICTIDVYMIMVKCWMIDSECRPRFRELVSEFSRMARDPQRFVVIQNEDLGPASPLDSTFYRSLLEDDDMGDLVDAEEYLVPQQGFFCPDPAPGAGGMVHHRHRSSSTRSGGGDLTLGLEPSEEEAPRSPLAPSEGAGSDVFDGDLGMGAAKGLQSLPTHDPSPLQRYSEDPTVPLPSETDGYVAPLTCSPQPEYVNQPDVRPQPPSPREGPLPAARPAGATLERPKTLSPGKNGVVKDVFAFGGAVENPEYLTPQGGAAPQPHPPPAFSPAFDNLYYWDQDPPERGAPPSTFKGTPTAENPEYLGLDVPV
Chain of Her2 Exon 20 INSYVMA Ba/F3 (P04626 with tags, fused parts or gaps DUP772-775): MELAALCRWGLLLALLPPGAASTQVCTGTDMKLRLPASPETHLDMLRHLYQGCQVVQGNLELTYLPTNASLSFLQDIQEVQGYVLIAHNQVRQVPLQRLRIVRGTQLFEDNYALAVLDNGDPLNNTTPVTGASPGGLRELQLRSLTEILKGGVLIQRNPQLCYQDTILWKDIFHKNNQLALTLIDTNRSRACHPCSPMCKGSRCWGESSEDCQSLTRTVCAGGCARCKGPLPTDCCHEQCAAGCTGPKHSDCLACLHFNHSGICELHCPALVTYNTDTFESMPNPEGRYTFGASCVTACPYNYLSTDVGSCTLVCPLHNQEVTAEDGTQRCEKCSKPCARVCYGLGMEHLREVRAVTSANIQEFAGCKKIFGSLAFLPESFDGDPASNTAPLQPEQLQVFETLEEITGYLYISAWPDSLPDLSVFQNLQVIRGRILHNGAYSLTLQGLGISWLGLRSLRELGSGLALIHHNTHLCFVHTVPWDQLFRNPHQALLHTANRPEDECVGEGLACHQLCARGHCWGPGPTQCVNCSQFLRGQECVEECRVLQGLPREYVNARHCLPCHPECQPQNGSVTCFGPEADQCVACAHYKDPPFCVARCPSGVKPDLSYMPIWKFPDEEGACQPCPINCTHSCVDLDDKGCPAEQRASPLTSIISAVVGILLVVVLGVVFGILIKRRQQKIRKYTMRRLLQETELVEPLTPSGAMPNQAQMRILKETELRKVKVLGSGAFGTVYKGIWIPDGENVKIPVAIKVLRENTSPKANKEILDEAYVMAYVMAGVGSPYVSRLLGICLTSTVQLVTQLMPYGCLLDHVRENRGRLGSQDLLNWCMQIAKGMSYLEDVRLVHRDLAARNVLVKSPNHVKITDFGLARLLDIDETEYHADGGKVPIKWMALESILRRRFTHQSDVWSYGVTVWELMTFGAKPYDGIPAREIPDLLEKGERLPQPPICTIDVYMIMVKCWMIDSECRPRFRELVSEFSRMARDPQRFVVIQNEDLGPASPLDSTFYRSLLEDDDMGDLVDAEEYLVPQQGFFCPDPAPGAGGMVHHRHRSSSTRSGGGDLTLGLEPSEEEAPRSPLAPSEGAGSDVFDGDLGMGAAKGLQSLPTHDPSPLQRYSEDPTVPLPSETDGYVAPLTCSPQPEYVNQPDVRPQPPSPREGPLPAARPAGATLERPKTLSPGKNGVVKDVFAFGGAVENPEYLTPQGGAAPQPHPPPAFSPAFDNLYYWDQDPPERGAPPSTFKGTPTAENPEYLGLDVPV
Chain of EGFR T790ML858R (P00533 25-1210 T790M/L858R): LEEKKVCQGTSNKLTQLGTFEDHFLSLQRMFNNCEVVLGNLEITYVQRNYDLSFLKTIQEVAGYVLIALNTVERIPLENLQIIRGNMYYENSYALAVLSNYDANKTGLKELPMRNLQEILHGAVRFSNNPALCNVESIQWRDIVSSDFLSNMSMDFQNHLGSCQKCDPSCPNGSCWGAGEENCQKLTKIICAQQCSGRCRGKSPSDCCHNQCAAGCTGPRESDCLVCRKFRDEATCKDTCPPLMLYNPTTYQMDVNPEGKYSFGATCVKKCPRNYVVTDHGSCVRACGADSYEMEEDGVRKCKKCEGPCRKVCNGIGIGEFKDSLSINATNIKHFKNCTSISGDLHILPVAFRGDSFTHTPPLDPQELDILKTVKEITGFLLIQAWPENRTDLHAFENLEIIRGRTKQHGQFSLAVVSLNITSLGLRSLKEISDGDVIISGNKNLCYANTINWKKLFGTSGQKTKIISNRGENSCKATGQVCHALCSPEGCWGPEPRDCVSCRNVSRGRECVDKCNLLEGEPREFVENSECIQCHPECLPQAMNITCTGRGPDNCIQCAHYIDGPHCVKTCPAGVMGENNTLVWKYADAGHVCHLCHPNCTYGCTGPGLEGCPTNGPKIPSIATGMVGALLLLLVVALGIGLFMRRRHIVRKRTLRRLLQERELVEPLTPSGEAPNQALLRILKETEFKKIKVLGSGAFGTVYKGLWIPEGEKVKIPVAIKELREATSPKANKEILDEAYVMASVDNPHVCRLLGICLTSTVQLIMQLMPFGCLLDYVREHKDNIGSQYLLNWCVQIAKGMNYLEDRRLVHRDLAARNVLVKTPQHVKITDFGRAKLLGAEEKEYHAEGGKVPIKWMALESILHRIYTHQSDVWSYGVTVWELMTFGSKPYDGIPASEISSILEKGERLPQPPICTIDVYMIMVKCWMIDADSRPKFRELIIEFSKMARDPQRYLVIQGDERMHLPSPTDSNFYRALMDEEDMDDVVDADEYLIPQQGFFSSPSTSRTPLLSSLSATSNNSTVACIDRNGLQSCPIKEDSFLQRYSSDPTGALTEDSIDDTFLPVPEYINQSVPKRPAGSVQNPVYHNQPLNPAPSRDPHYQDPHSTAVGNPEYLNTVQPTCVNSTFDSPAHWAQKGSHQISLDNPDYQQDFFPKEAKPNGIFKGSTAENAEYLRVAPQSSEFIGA
Chain of EGFR Exon 20 INSNPH Ba/F3 (P00533 with tags, fused parts or gaps DUP771-773): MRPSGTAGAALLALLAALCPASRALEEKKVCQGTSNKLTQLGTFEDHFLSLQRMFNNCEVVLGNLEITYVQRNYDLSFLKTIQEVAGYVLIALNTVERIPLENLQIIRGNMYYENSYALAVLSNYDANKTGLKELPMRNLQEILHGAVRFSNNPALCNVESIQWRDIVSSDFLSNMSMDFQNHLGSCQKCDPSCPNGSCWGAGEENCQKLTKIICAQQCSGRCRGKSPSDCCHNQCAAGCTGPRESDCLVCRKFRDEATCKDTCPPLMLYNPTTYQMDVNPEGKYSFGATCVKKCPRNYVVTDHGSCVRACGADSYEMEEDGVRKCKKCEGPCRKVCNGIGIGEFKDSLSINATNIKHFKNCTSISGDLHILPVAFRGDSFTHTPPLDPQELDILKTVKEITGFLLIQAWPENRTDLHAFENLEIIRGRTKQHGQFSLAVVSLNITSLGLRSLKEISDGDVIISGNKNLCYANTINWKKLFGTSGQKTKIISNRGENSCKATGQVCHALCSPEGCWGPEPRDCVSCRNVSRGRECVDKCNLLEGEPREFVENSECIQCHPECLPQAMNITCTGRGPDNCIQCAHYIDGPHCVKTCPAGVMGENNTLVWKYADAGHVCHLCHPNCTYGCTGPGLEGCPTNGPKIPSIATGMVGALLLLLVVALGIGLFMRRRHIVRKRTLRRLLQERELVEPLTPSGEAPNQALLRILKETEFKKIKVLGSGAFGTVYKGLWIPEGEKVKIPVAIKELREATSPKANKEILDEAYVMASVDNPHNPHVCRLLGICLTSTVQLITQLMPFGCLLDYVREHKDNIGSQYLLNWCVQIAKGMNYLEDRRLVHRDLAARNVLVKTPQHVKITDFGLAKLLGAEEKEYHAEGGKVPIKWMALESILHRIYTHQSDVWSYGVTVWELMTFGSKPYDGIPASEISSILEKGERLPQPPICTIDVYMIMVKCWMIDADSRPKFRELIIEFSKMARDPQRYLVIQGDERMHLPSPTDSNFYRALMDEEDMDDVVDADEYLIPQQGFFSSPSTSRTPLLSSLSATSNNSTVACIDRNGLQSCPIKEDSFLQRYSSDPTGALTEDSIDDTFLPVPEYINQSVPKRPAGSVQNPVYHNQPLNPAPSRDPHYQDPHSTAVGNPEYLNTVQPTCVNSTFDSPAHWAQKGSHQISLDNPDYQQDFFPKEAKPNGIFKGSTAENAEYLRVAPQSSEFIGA

Consider `Cc1ccc(-c2c(-c3ccc(N4CCN(C)CC4)cc3)[nH]c3nccc(Cl)c23)cc1NC(=O)/C=C/CN(C)C` [Example 143, (E)-N-(5-(4-chloro-2-(4-(4-methylpiperazin-1-yl)phenyl)-1H-pyrrolo[2,3-b]pyridin-3-yl)-2-methylphenyl)-4-(dimethylamino)but-2-enamide 2,2,2-trifluoroacetate], for which the concentration for half-maximal inhibition (IC50) (as a rule, the concentration that inhibits the measured activity by half) in the test on A431 is 1000 to 100000 nM; against EGFR T790ML858R it was not above 100 nM; at HER2 INS YVMA, not above 100 nM; against EGFR wt it was not above 100 nM; in the test with H1975 it was 100 to 500 nM. Further, the GI50 in test [1] and in test [2] was 100 to 500 nM in each case.

With `C=CC(=O)Nc1cc(-c2c(-c3ccc(N(C)CCN(C)C)cc3)[nH]c3ncc(C(=O)OC(C)C)c(C)c23)ccc1C` [Example 204, isopropyl 3-(3-acrylamido-4-methylphenyl)-2-(4-((2-(dimethylamino)ethyl)(methyl)amino)phenyl)-4-methyl-1H-pyrrolo[2,3-b]pyridine-5-carboxylate], the half-maximal inhibitory concentration (IC50) in the test on A431 is 1000 to 100000 nM; against EGFR T790ML858R, not above 100 nM; against HER2 INS YVMA, not above 100 nM; at EGFR wt it was not above 100 nM; in the test with H1975, 100 to 500 nM. Moreover, the GI50 in test [1] and in test [2] was not above 100 nM each time.

Consider `C=CC(=O)Nc1cc(-c2c(-c3ccc(N4CCN(C)CC4)cc3)[nH]c3ncc(C(=O)NCc4ccc(F)cc4F)cc23)ccc1C` [Example 131, 3-(3-acrylamido-4-methylphenyl)-N-(2,4-difluorobenzyl)-2-(4-(4-methylpiperazin-1-yl)phenyl)-1H-pyrrolo[2,3-b]pyridine-5-carboxamide], for which the half-maximal inhibitory concentration (IC50) in the test on A431 is 1000 to 100000 nM; against EGFR T790ML858R, 500 to 1000 nM; at HER2 INS YVMA, 100 to 500 nM; on EGFR wt, not above 100 nM; with H1975, 1000 to 100000 nM. In addition, the results for the GI50 in test [1] and in test [2] were 1000 to 10000 nM and 500 to 1000 nM, respectively.

For the compound `C=CC(=O)Nc1cc(-c2c(-c3cccc(CN4CCN(C(C)=O)CC4)c3)[nH]c3ncc(C(=O)OC(C)C)cc23)ccc1C` [Example 186, isopropyl 2-(3-((4-acetylpiperazin-1-yl)methyl)phenyl)-3-(3-acrylamido-4-methylphenyl)-1H-pyrrolo[2,3-b]pyridine-5-carboxylate], the IC50 was 1000 to 100000 nM in the test on A431; 100 to 500 nM at EGFR T790ML858R; 100 to 500 nM at HER2 INS YVMA; not above 100 nM against EGFR wt; 1000 to 100000 nM in the test with H1975. For the same compound, the GI50 in test [1] and in test [2] was 1000 to 10000 nM throughout.

With `C=CC(=O)Nc1cc(-c2c(-c3ccc(N(C)CCN(C)C)cc3)[nH]c3ncc(C(=O)O)cc23)ccc1C` [Example 153, 3-(3-acrylamido-4-methylphenyl)-2-(4-((2-(dimethylamino)ethyl)(methyl)amino)phenyl)-1H-pyrrolo[2,3-b]pyridine-5-carboxylic acid 2,2,2-trifluoroacetate], the IC50 with A431 is more than 10000 nM; at EGFR T790ML858R, not above 100 nM; at HER2 INS YVMA, not above 100 nM; on EGFR wt, not above 100 nM; with H1975, more than 10000 nM. Besides, the GI50 in test [1] and in test [2] was more than 10000 nM each time.

Turning to `C=CS(=O)(=O)Nc1cc(-c2c(-c3ccc(N4CCN(C)CC4)cc3)[nH]c3nccc(Cl)c23)ccc1C` [Example 145, N-(5-(4-chloro-2-(4-(4-methylpiperazin-1-yl)phenyl)-1H-pyrrolo[2,3-b]pyridin-3-yl)-2-methylphenyl)ethenesulfonamide 2,2,2-trifluoroacetate], the 50% inhibitory concentration (IC50) in the test with A431 is 1000 to 100000 nM; against EGFR T790ML858R it was not above 100 nM; against HER2 INS YVMA, not above 100 nM; against EGFR wt, not above 100 nM; in the test on H1975, 100 to 500 nM. In addition, the GI50 in test [1] and in test [2] was 500 to 1000 nM in each case.

As for `C=CC(=O)Nc1cc(-c2c(-c3ccc(N4CCN(C)CC4)cc3)[nH]c3ncc(C(=O)NCc4nc5ccccc5[nH]4)cc23)ccc1C` [Example 125, N-((1H-benzo[d]imidazol-2-yl)methyl)-3-(3-acrylamido-4-methylphenyl)-2-(4-(4-methylpiperazin-1-yl)phenyl)-1H-pyrrolo[2,3-b]pyridine-5-carboxamide], the concentration for half-maximal inhibition (IC50) in the test with A431 is 1000 to 100000 nM; against EGFR T790ML858R, 100 to 500 nM; on HER2 INS YVMA, 1000 to 10000 nM; on EGFR wt, not above 100 nM; with H1975, 100 to 500 nM. Besides, the GI50 in test [1] and in test [2] was 1000 to 10000 nM throughout.

For the compound `C=CC(=O)Nc1cc(-c2c(-c3ccc(N4CCN(C)CC4)cc3)[nH]c3nccc(Cl)c23)cc(C)c1C` [Example 150, N-(5-(4-chloro-2-(4-(4-methylpiperazin-1-yl)phenyl)-1H-pyrrolo[2,3-b]pyridin-3-yl)-2,3-dimethylphenyl)acrylamide 2,2,2-trifluoroacetate], the concentration for half-maximal inhibition (IC50) was 500 to 1000 nM with A431; not above 100 nM on EGFR T790ML858R; not above 100 nM against HER2 INS YVMA; not above 100 nM against EGFR wt; not above 100 nM in the test on H1975. The GI50 was 100 to 500 nM in test [1] and 500 to 1000 nM in test [2].

For the compound `C=CC(=O)Nc1cc(-c2c(-c3ccc(OCCN(C)C)cc3)[nH]c3ncc(C(=O)OC(C)C)c(C)c23)ccc1C` [Example 205, isopropyl 3-(3-acrylamido-4-methylphenyl)-2-(4-(2-(dimethylamino)ethoxy)phenyl)-4-methyl-1H-pyrrolo[2,3-b]pyridine-5-carboxylate], the half-maximal inhibitory concentration (IC50) was 1000 to 100000 nM in the test with A431; not above 100 nM at EGFR T790ML858R; not above 100 nM against HER2 INS YVMA; not above 100 nM against EGFR wt; 100 to 500 nM with H1975. For the same compound, the GI50 in test [1] was not above 100 nM; in test [2], 100 to 500 nM.

With `C=CC(=O)Nc1cc(-c2c(-c3ccc(N4CCN(C)CC4)cc3)[nH]c3ncc(C(=O)OC(C)C)c(C)c23)ccc1C` [Example 198, isopropyl 3-(3-acrylamido-4-methylphenyl)-4-methyl-2-(4-(4-methylpiperazin-1-yl)phenyl)-1H-pyrrolo[2,3-b]pyridine-5-carboxylate], the IC50 in the test on A431 is 500 to 1000 nM; against EGFR T790ML858R, not above 100 nM; at HER2 INS YVMA, not above 100 nM; at EGFR wt, not above 100 nM; in the test with H1975 it was 100 to 500 nM.
